Experiments:
collagenase expression = assay: Effect of other anti-microtubule agents on IL-1-induced collagenase expression in primary chondrocytes; type: cell-based, calf; conditions: pre-incubation of chondrocytes 6 hours, then IL-1 20 ng/ml 18 hours; FIGS. 7A-H
Experimental: Primary chondrocyte cultures were freshly isolated from calf cartilage. The cells were plated at 2.5×10^6 per ml in 100×20 mm culture dishes and incubated in Ham's F12 medium containing 5% FBS overnight at 37° C. The cells were starved in serum-free medium overnight and then treated with anti-microtubule agents at various concentrations for 6 hours. IL-1 (20 ng/ml) was then added to each plate and the plates incubated for an additional 18 hours. Total RNA was isolated by the acidified guanidine isothiocyanate method and subjected to electrophoresis on a denatured gel. Denatured RNA samples (15 μg) were analyzed by gel electrophoresis in a 1 % denatured gel, transferred to a nylon membrane and hydridized with the ^32P-labeled collagenase cDNA probe. ^32P-labeled glyceraldehyde phosphate […] (GAPDH) cDNA as an internal standard to ensure roughly equal loading. The exposed films were scanned and quantitatively analyzed with ImageQuant.

human fibroblasts = assay: Screening assay for effect on cell proliferation (CYQUANT fluorescence); type: cell-based; conditions: Fibroblast, 72 hours incubation, FIG. 2
Experimental: Fibroblasts at 70-90% confluency are trypsinized, replated at 600 cells/well in media in 96-well plates and allowed to attachment overnight. Mitoxantrone is prepared in DMSO at a concentration of 10^−2 M and diluted 10-fold to give a range of stock concentrations (10^−8 M to 10^−2 M). Drug dilutions are diluted 1/1000 in media and added to cells to give a total volume of 200 μL/well. Each drug concentration is tested in triplicate wells. Plates containing fibroblasts and mitoxantrone are incubated at 37° C. for 72 hours (In vitro toxicol. (1990) 3:219; Biotech. Histochem. (1993) 68: 29; Anal. Biochem. (1993) 213:426).
To terminate the assay, the media is removed by gentle aspiration. A 1/400 dilution of CYQUANT 400× GR dye indicator (Molecular Probes; Eugene, Ore.) is added to […] Cell Lysis buffer, and 200 μL of the mixture is added to the wells of the plate. Plates are incubated at room temperature, protected from light for 3-5 minutes. Fluorescence is read in a fluorescence microplate reader at ˜480 nm excitation wavelength and ˜520 nm emission maxima. […] An average of n=4 replicate experiments is used to determine IC50 values.

[1] = system: IL-1β production by THP-1 cells; assay: IL-1β production by macrophages (opsonized zymosan stimulated, ELISA); type: cell-based; conditions: Homo sapiens, 24 hours, 1 mg/mL opsonized zymosan, FIG. 9
Experimental: (§1) The human macrophage cell line, THP-1 is plated in a 12 well plate such that each well contains 1×10^6 cells in 2 mL of media containing 10% FCS. Opsonized zymosan is prepared by resuspending 20 mg of zymosan A in 2 mL of ddH2O and homogenizing until a uniform suspension is obtained. Homogenized zymosan is pelleted at 250 g and resuspended in 4 mL of human serum for a final concentration of 5 mg/mL. and incubated in a 37° C. water bath for 20 minutes to enable opsonization. Geldanamycin is prepared in DMSO at a concentration of 10^−2 M and serially diluted 10-fold to give a range of stock concentrations (10^−8 M to 10^−2 M).
THP-1 cells are stimulated to produce IL-1β by the addition of 1 mg/mL opsonized zymosan. Geldanamycin is added to THP-1 cells by directly adding DMSO stock solutions, prepared earlier, at a 1/1000 dilution, to each well. […]
(§2) After a 24 hour stimulation, supernatants are collected to quantify IL-1β production. IL-1β concentrations in the supernatants are determined by ELISA using recombinant human IL-1β to obtain a standard curve. […] The dilution of Capture Antibody used is lot-specific and is determined empirically. […] Stop Solution (2 N H2SO4) is then added to the wells and a yellow colour reaction is read at 450 nm with λ correction at 570 nm. Mean absorbance is determined from triplicate data readings and the mean background is subtracted. […]

[2] = system: IL-8 production by THP-1 cells; assay: IL-8 production by macrophages (opsonized zymosan stimulated, ELISA); type: cell-based; conditions: Homo sapiens, 24 hours, 1 mg/mL opsonized zymosan, FIG. 10
Experimental: as §1
THP-1 cells are stimulated to produce IL-8 by the addition of 1 mg/mL opsonized zymosan. Geldanamycin is added to THP-1 cells by directly adding DMSO stock solutions, prepared earlier, at a 1/1000 dilution, to each well. […]
as §2, with “IL-8” for “IL-1β”

[3] = system: MCP-1 production by THP-1 cells; assay: MCP-1 production by macrophages (opsonized zymosan stimulated, ELISA); type: cell-based; conditions: Homo sapiens, 24 hours, 1 mg/mL opsonized zymosan, FIG. 11
Experimental: as §1
THP-1 cells are stimulated to produce MCP-1 by the addition of 1 mg/mL opsonized zymosan. Geldanamycin is added to THP-1 cells by directly adding DMSO stock solutions, prepared earlier, at a 1/1000 dilution, to each well. […]
as §2, with “MCP-1” for “IL-1β”

Row | Molecule | concentration (as low as) preventing IL-1-induced collagenase expression (collagenase expression) | further results
1 | N#CC1=C(N)Oc2c(ccc3ccccc23)C1c1cccc([N+](=O)[O-])c1 (stereo not shown) [LY290181] | 100 nM | 
2 | ethylene glycol bis-(succinimidylsuccinate) | 100 nM | 
3 | [2H]O[2H] [deuterium oxide] | 100 nM | 
4 | hexylene glycol | 100 nM | 
5 | CCOC(=O)CN [glycine ethyl ester] | 100 nM | 
6 | O=C1c2c(O)ccc(O)c2C(=O)c2c(NCCNCCO)ccc(NCCNCCO)c21 [Mitoxantrone, 9,10-Anthracenedione, 1,4-dihydroxy-5,8-bis[[2-[(2-hydroxyethyl)amino]ethyl]amino]-] |  | IC50 (human fibroblasts): 20 nM
7 | COC1=C2C[C@@H](C)C[C@H](OC)[C@H](O)[C@@H](C)/C=C(\C)[C@H](OC(N)=O)[C@@H](OC)/C=C\C=C(/C)C(=O)NC(=CC1=O)C2=O [geldanamycin] |  | IC50 [1]: 20 nM; IC50 [2]: 27 nM; IC50 [3]: 7 nM
8 | [F][Al]([F])[F] [AIF3] | 100 nM | 

Source: patent publication US20040260318A1, “Anastomotic connector devices” (Angiotech International AG, priority 2003, published 2004)
